Here are results for 8 compounds from EP0355409A2, “Use of prolylendopeptidase inhibitors in the treatment of AIDS” (KABUSHIKI KAISHA YAKULT HONSHA, priority 1988, dated 1990).

Assay [1] addresses T1, PEP derived from bovine brain (Bos taurus, UniProt Q9XTA2).
T1 construct: PEP derived from bovine brain; from tissue; host or cells: bovine brain
T1 sequence (Q9XTA2 1-710): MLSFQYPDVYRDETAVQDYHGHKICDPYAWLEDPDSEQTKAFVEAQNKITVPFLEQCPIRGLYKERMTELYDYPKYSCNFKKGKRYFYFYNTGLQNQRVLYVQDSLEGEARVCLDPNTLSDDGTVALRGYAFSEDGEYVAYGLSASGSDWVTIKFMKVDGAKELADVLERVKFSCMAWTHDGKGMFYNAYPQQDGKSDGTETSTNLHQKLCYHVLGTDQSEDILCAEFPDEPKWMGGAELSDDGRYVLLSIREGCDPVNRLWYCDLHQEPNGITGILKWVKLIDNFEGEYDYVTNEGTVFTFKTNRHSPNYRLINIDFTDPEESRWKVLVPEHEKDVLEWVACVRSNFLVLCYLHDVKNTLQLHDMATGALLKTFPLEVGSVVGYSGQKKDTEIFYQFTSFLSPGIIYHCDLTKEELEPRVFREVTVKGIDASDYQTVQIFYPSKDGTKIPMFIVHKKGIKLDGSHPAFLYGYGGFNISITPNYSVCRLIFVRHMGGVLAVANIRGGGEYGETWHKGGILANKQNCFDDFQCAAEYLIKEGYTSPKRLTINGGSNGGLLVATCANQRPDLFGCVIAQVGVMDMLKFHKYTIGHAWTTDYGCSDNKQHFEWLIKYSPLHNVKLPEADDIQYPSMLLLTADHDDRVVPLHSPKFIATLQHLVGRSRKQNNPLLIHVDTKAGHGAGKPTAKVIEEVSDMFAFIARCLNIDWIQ
Nature of the assay: Measurement of PEP inhibitory action (substrate Z-Gly-Pro-β-naphtyl amide). It counts as biochemical. Conditions: pH 7.0, 37°C, read-out: PEP Inhibition IC50. The method, then:
Those two types of cells were cultured in 200 µl/well of RPMI1640 medium added with 10% FCS in a 96-well microplate. The PEP inhibitors of this invention and comparative product, which are shown in Table 1, were separately added. The cells were cultured at 37°C for 18 hours in a capneic incubator. Formation of syncytia was observed. The PEP inhibitory action was measured according to the following method.
Z-Gly-Pro-β-naphtyl amide was used as a substrate and the inhibitory action against PEP derived from bovine brain was measured.
0.7 ml of 20 mM-tris HCl buffer (pH 7.0) containing 10 mM of EDTA and 10 mM of 2-mercaptoethanol was added with 100 µl of PEP (about 0.14 u/ml) and 100 µl of a test solution which had been prepared to have a predetermined concentration (0, 10⁻⁹ - 10⁻⁴M), and subjected to preincubation at 37°C for 5 minutes. To this was added various concentrations of a substrate which had been dissolved in 100 µl of 40% dioxane followed by incubation at 37°C for 15 minutes to proceed an exzymatic reaction. The reaction was terminated by the use of 25% trichloroacetic acid. The solution was centrifugally separated at 3,000 rpm for 10 minutes to obtain 0.5 ml of a supernatent, to which was added 0.5 ml of 0.1% nitrous acid, and 3 minutes after, 0.05% N-(1-naphtyl)ethylendediaminedihydrochloride ethanol solution. After allowing the mixture to stand at 37°C for 25 minutes, the absorbance at 570 nm was measured. […] Enzyme activity unit (µmol/min/ml) = ΔOD x 0.42 x dilution ratio

In assay [2] the test system is LAV-1 infected CEM cells (CEM/LAV-1) and MOLT4 Clone 8. Put plainly: Inhibition of syncytia formation in mixed culture of HIV-infected and non-infected T cells. Conditions: 1 mM; CEM/LAV-1 + MOLT4 Clone 8, 37°C, 18 hours. Format: cell-based. The arrangement: key: -: Absolutely no inhibition of syncytium formation.; ±: Slight inhibition of syncytium formation.; +: Partial inhibition of syncytium formation.; ++: Substantial inhibition of syncytium formation.; +++: Complete inhibition of syncytium formation. The source says:
When HIV-infected T cells and non-infected T cells are mixed in a test tube, the infected T cells and non-infected T cells undergo fusion and form giant cells. This "syncytium forming phenomenon" has already been known to be observed upon their mixing. This phenomenon is characteristic to intercellular infection from HIV and is regarded as an evidence for HIV infection of T cells.
LAV-1 infected CEM cells (CEM/LAV-1, 2 x 10⁴) and MOLT4 Clone 8 (1 x 10⁵) were used as HIV-infected cells and non-infected cells, respectively. Those two types of cells were cultured in 200 µl/well of RPMI1640 medium added with 10% FCS in a 96-well microplate. The PEP inhibitors of this invention and comparative product, which are shown in Table 1, were separately added. The cells were cultured at 37°C for 18 hours in a capneic incubator. Formation of syncytia was observed. The PEP inhibitory action was measured according to the following method.

Square brackets hold non-standard residues; d marks the D form. Peptide text beside a SMILES is read from it. * marks the point of attachment. Cbz = O=C(OCc1ccccc1)*; Thz = O=C(O)[CH]1CSCN1

In general, IC50 refers to the concentration that inhibits the measured activity by half. As to `O=C(C1CCCN1C(=O)OCc1ccccc1)N1CCCCC1` (stereo not drawn), the 50% inhibitory concentration (IC50) in assay [1] was above 1000 µM. Moreover, the “Inhibition of Syncytia Formation” value in assay [2] was “±”.
For the compound `O=C(C1CSCN1C(=O)OCc1ccccc1)N1CCOCC1` (stereo not drawn), the IC50 in assay [1] came out at 0.54 µM.
Same read-out and setting: the value for `O=C(C1CSCN1C(=O)OCc1ccccc1)N1CCCC1` (stereo not drawn) was 0.16 µM.
Consider `O=C(C1CCCN1C(=O)OCc1ccccc1)N1CCSC1` (stereo not drawn), for which the IC50 in assay [1] is 0.0046 µM. Moreover, in assay [2], the “Inhibition of Syncytia Formation” value is listed as “++”.
Consider `O=C(C1CSCN1C(=O)OCc1ccccc1)N1CCSC1` (stereo not drawn), for which, in assay [1], the IC50 turned out to be 0.00014 µM. The “Inhibition of Syncytia Formation” value in assay [2] is “+++”.
For the compound `O=CC1CSCN1C(=O)C1CCCN1C(=O)OCc1ccccc1` (stereo not drawn) (Cbz-Pro-[Thz]-aldehyde; configuration not given here), the concentration for half-maximal inhibition (IC50) in assay [1] turned out to be 0.001 µM. In addition, in assay [2], the “Inhibition of Syncytia Formation” value is “++”.
As to `O=CC1CSCN1C(=O)C1CSCN1C(=O)OCc1ccccc1` (stereo not drawn) (Cbz-[Thz]-[Thz]-aldehyde; configuration not given here), in assay [2], the “Inhibition of Syncytia Formation” value was “+++”.
Turning to `O=C(C1CSCN1)N1CCSC1` (stereo not drawn) [comparative product, reference compound], the IC50 in assay [1] is above 1000 µM.
